Data set [1] deals with cancer stem cell-like colorectal cancer cells derived from patients with relapse and metastasis after radiation therapy, xenografted. The experiment in a line: Tumor volume and weight in colorectal cancer cell xenograft mouse. Type of data set: in vivo, BALB/c nude female mouse. Conditions: oral compound (27 mg/kg) and X-rays at 5 Gy. As to the method:
(§1) After cancer stem cell-like colorectal cancer cells, which were derived from patients with relapse and metastasis after radiation therapy, were cultured in vitro, the cultured cells were injected subcutaneously into the upper left flank of a BALB/c nude female mouse to be 2.0×10^7 cells/mouse. […] The mice were anesthetized to measure a change in tumor volume daily using calipers for 40 days, and the result is shown in FIG. 9. The tumor volume was calculated by the above-described Equation 1. In addition, after 40 days, a tumor weight was measured, and the result is shown in FIG. 10, and for 41 days, the body weight of the mouse was measured, and the result is shown in FIG. 11.

Data set [2] deals with cancer stem cell-like thyroid cancer cells derived from patients with relapse and metastasis after paclitaxel administration. The data set is described as follows: Paclitaxel activity enhancement in paclitaxel-resistant thyroid cancer cells (cell number, viability). Type of data set: cell-based, human. The method, then: After cancer stem cell-like thyroid cancer cells derived from patients with relapse and metastasis after paclitaxel administration (ATC) were treated with a compound of Preparation Example 1-1 (150 nM) only; paclitaxel (12 nM) only; or a combination of paclitaxel (5 nM) and a compound of Preparation Example 1-1 (70 nM), a change in number of cells over time was confirmed. In addition, a change in cell viability according to a treatment concentration of paclitaxel, the compound of Preparation Example 1-1, or the combination of paclitaxel and the compound of Preparation Example 1-1 is shown in FIG. 1. In addition, the change in cell viability according to the treatment concentration of paclitaxel, the compound of Preparation Example 1-1 and the combination thereof was measured, and the result is shown in FIG. 2.

In data set [3] the test system is cancer stem cell-like stomach cancer cells derived from patients with relapse and metastasis after irinotecan administration, xenografted. The experiment in a line: Tumor volume and weight in stomach cancer cell xenograft mouse.
Data set [4] in a line: Body weight of colorectal cancer cell xenograft mice. Type of data set: in vivo, BALB/c nude female mouse. Conditions: 41 days, compared with negative control, stated as no toxicity problem, FIG. 11. As to the method:
as §1

Data set [5] can be described thus: Body weight of stomach cancer cell xenograft mice. Particulars: 41 days, compared with negative control, stated as no toxicity problem, FIG. 7.
Data set [6] has as its system cancer stem cell-like thyroid cancer cells derived from patients with relapse and metastasis after paclitaxel administration, xenografted. The data set is described as follows: Tumor volume in thyroid cancer cell xenograft mouse. Particulars: 60 days, FIG. 3. Type of data set: in vivo, BALB/c nude female mouse. The method, then: After cancer stem cell-like thyroid cancer cells derived from patients with relapse and metastasis after paclitaxel administration were cultured in vitro, the cultured cells were injected subcutaneously into the upper left flank of a BALB/c nude female mouse to be 2.0×10^7 cells/mouse. […] The mice were anesthetized to measure a change in tumor volume daily using calipers for 60 days, and the result is shown in FIG. 3. The tumor volume was evaluated using the following Equation 1. Tumor volume=L×S^2/2 [Equation 1] • (however, L is the longest diameter, and S is the shortest diameter)

Data set [7] concerns cancer stem cell-like colorectal cancer cells derived from patients with relapse and metastasis after radiation therapy. The data set is described as follows: Radiation treatment activity enhancement in radiation-resistant colorectal cancer cells (cell number). The class given is cell-based, human. Particulars: compound (75 nM) and X-rays at 5 Gy; FIG. 8. The method, then: After cancer stem cell-like colorectal cancer cells derived from patients with relapse and metastasis after radiation therapy were treated with the compound of Preparation Example 1-1 (150 nM) only; Faxitron X-rays (Faxitron Bioptics, AZ, USA) at an intensity of 5 Gy (RT); or the compound of Preparation Example 1-1 (75 nM) and the X-rays at an intensity of 5 Gy, the change in number of cancer cells over treatment time was measured, and the result is shown in FIG. 8.

Data set [8] has as its system cancer stem cell-like stomach cancer cells derived from patients with relapse and metastasis after irinotecan administration. The experiment in a line: Irinotecan activity enhancement in irinotecan-resistant stomach cancer cells (cell number). Type of data set: cell-based, human. Particulars: FIG. 4. The method, then:
After cancer stem cell-like stomach cancer cells derived from patients with relapse and metastasis after irinotecan administration were treated with the compound of Preparation Example 1-1 only (170 nM); irinotecan only (8.9 μM); or a combination of irinotecan (4.5 μM) and the compound of Preparation Example 1-1 (75 nM), a change in cell number over treatment time was measured, and the result is shown in FIG. 4.

Data set [9] concerns SKOV3 (epithelial ovarian cancer cell line). The experiment in a line: Cell morphology and viability (ImageJ living cell count) in SKOV3. The class given is cell-based. Particulars: paclitaxel 0.2 μM; morphological analysis. As to the method: (§2) To confirm the anticancer therapeutic activity enhancing effects of the compounds of Preparation Examples, the compounds or salts prepared in Preparation Examples 1-1 to 31 (hereinafter, the compounds of Preparation Examples) were used, and cellular experiments were carried out with an epithelial ovarian cancer cell line SKOV3 and SKOV3-TR derived therefrom and produced as a resistant cell line having resistance to a paclitaxel anticancer agent. […]
(§3) For the morphological analysis of the cells, 24, 48 and 72 hours after paclitaxel treatment, images of cells treated with “None (untreated sample)”, “DMSO (paclitaxel solvent)”, “ethanol (solvent for the compounds of Preparation Examples)”, “paclitaxel”, “paclitaxel+ethanol”, and “paclitaxel+the compound of Preparation Example 1-2 (L19001)” were obtained. In addition, for the analysis of cell viability, 72 hours after treatment with paclitaxel or the compound of each Preparation Example only, or co-treatment with paclitaxel and the compound of each Preparation Example, the number of living cells was measured through Image J analysis.
(§4) The cell viability of the two types of cancer cell lines was analyzed by measuring the number of living cells using the ImageJ program.

In data set [10] the test system is SKOV3-TR (paclitaxel-resistant epithelial ovarian cancer cell line). The data set is described as follows: Cell morphology and viability (ImageJ living cell count) in SKOV3-TR. Conditions: paclitaxel 5 μM; morphological analysis. Type of data set: cell-based. The method, then: as §2, §3, §4

Take `CCc1oc2ccccc2c1CN1CCN2C(=O)CNC(=O)C2C1` (centres unmarked) [Preparation Example 1-1, 2-((2-ethylbenzofuran-3-yl)methyl)hexahydro-2H-pyrazino[1,2-a]pyrazine-6,9-dione]: the tumor volume result in data set [1] (40 days, FIG. 9) was “remarkably decreased”; in [3] (oral compound (32 mg/kg) and irinotecan (55 mg/kg), 40 days, FIG. 5), “remarkably decreased”; in [6] (oral compound (27 mg/kg) then intraperitoneal paclitaxel (11 mg/kg)) it was “remarkably decreased”. For the same molecule, the tumor weight result in [1] (after 40 days, FIG. 10) is “remarkably decreased”; in data set [3] (oral compound (32 mg/kg) and irinotecan (55 mg/kg), after 40 days, FIG. 6), “remarkably decreased”. Moreover, the “number of stem cell-like thyroid cancer cells” value in data set [2] (combination of paclitaxel (5 nM) and compound (70 nM), FIG. 1) is recorded as “remarkably decreased”. For the same molecule, the “cell viability of stem cell-like thyroid cancer cells” value in data set [2] (combination of paclitaxel and compound, FIG. 2) is recorded as “remarkably decreased”. For the same molecule, the “change in body weight of the mouse” value in [4] (oral compound (27 mg/kg) in combination with radiation therapy (5 Gy)), in data set [4] (oral compound (60 mg/kg) only), in data set [5] (oral compound (32 mg/kg) in combination with irinotecan (55 mg/kg)) and in data set [5] (oral compound (70 mg/kg) alone) was “no change” each time. Further, the “number of cancer cells” value in data set [7] is reported as “remarkably decreased”; in data set [8] (combination of irinotecan (4.5 μM) and compound (75 nM)), “remarkably decreased”.
With `CCc1c2c(nc3ccc(OC(=O)N4CCC(N5CCCCC5)CC4)cc13)-c1cc3c(c(=O)n1C2)COC(=O)[C@]3(O)CC` [irinotecan, reference compound], in data set [3] (oral irinotecan (75 mg/kg) only, after 40 days, compared with negative control, FIG. 6), the “change in tumor weight” value was “no change”. Further, the “change in number of cancer cells” value in data set [8] (irinotecan only (8.9 μM), compared with negative control) was “no change”.
For `CC(=O)O[C@H]1C(=O)[C@@]2(C)[C@H]([C@H](OC(=O)c3ccccc3)[C@]3(O)C[C@H](OC(=O)[C@H](O)[C@@H](NC(=O)c4ccccc4)c4ccccc4)C(C)=C1C3(C)C)[C@]1(OC(C)=O)CO[C@@H]1C[C@@H]2O` [paclitaxel, reference compound], the “change in cancer cell number” value in data set [2] (paclitaxel (12 nM) only, compared with negative control, FIG. 1) was “no change”. For the same molecule, the “viability of cancer cells” value in data set [2] (paclitaxel only, compared with negative control, FIG. 2) is “no change”. The “number of living cells (induction of cell death and inhibition of cell growth)” value in data set [9] and in [10] was “decrease” each time. For the same molecule, the “change in tumor volume” value in data set [6] (intraperitoneal paclitaxel (25 mg/kg) only, compared with negative control) is recorded as “no change”.

The values above are taken from patent US12139491B2, “Diketopiperazine derivatives as calcium ATPase inhibitor for enhancing anticancer activity” (HOLOSMEDIC, priority 2018, dated 2024).
